Broadly, the GI50 is the concentration that inhibits growth by half. A lower GI50 goes with greater sensitivity of the cells.

One test relates to RPMI-8226. In words: Cytotoxicity against human RPMI8226 cells by alamar blue assay. In kind it is functional.
A further test relates to DU-145. Kind of test: Cytotoxicity against human DU145 cells by alamar blue assay. Format: functional. (Resazurin is reduced to fluorescent resorufin, in cell work by metabolically active cells.)
The next test concerns Nucleic Acid. Kind of test: Induction of Escherichia coli pUC18 DNA interstrand crosslinking activity assessed as time required to reach peak. Format: nucleic-acid assay.
For another test, the system named is A549. Kind of test: Cytotoxicity against human A549 cells by alamar blue assay. In kind it is functional.
Another test relates to A2780. Kind of test: Cytotoxicity against human A2780 cells by alamar blue assay. In kind it is functional.
Another test relates to K562. Kind of test: Cytotoxicity against human K562 cells by alamar blue assay. Format: functional.
A further test deals with LOX IMVI. In words: Cytotoxicity against human LOXIMVI cells by alamar blue assay. Format: functional.
For a further test, the system named is MCF7. In words: Cytotoxicity against human MCF7 cells by alamar blue assay. Format: functional.
Test [1] can be described thus: Cytotoxicity against human LNCaP-FGC cells by alamar blue assay. In kind it is functional. The note with it: LNCaP-Clone-FGC.

As for `COc1ccc(C2=CN3C(=O)c4cc(OC)c(OCCCOc5cc6c(cc5OC)C(=O)N5C=C(c7ccc(OC)cc7)C[C@H]5C=N6)cc4N=C[C@@H]3C2)cc1`, the GI50 was found to be 5.1 pM with RPMI-8226; 0.0154 nM in the test on DU-145; 0.033 nM in the test with A549; 2.4 pM in the test on A2780; 0.013 nM in the test on K562; 0.0225 nM in the test on LOX IMVI. The results for the GI50 (in the test with MCF7; in test [1]) were 0.0186 nM and 2.7 pM, respectively. In addition, the Activity with Nucleic Acid was 2 h.
For the molecule `C=C1C[C@H]2C=Nc3cc(OCCCOc4cc5c(cc4OC)C(=O)N4CC(=C)C[C@H]4C=N5)c(OC)cc3C(=O)N2C1` [SJG-136], the GI50 in the test with K562 was found to be 0.419 nM.

The record behind these values is ChEMBL document CHEMBL1154337, “Synthesis of a novel C2/C2'-aryl-substituted pyrrolo[2,1-c][1,4]benzodiazepine dimer prodrug with improved water solubility and reduced DNA reaction rate” (Bioorg Med Chem Lett, 2009).
